The results in this text go back to US20150299120A1, “Spirohydantoin compounds and their use as selective androgen receptor modulators” (NOVARTIS AG, priority 2012, published 2015).

For one data set, the target named is T1, androgen receptor (AR) (Homo sapiens, UniProt P10275).
T1 construct: transfecting C2C12 cells with a plasmid containing full-length AR; expressed in transfected cells; host or cells: mouse myoblastic C2C12 cells (ATCC CRL-1772), transiently transfected with AR-FL in pcDNA 3.1(+)
T1 sequence (P10275 1-920): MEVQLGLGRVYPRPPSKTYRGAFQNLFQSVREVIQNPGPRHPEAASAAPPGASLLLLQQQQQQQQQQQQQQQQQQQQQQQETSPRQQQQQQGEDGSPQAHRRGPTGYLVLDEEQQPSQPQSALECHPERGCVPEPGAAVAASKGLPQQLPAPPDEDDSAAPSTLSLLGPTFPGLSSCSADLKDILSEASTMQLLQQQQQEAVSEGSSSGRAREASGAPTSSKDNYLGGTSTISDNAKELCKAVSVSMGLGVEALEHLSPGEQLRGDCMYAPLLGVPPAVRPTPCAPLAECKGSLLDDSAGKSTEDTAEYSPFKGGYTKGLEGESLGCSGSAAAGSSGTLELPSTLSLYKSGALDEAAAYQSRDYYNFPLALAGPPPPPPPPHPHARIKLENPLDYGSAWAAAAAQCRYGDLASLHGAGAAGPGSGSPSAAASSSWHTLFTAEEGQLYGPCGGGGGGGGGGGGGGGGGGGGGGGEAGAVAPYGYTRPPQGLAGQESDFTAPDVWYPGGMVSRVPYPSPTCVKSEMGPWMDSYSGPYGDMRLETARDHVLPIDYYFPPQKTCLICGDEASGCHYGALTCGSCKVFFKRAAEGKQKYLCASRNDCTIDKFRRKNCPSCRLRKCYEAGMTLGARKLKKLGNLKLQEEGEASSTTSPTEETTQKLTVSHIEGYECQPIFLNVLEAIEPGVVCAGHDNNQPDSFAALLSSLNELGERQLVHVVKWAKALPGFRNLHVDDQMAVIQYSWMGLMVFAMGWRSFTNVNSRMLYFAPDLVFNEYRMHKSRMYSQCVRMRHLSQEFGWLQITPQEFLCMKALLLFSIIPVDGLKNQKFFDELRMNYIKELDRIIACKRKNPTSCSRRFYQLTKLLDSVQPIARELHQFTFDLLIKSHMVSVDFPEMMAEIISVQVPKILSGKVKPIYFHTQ
The experiment in a line: Test 1: androgen receptor transcriptional activation (2XIDR17-luciferase) assay in transfected C2C12 cells. The class given is cell-based. The note with it: for Emax: C2C12, C2C12 cells, percentage activity relative to 1 μM DHT, read-out: Biological activity (C2C12 cell) Emax % (converted); for % Biological activity (C2C12 cell) 100 nM: compound at 100 nM; for % Biological activity (C2C12 cell) 100 nM / % Biological activity (C2C12 cell) 5 μM: relative to 1 μM DHT; for % Biological activity (C2C12 cell) 5 μM: compound at 5 μM. The method, then:
A suitable assay to determine the ability of a ligand to transcriptionally activate androgen receptor (AR) is carried out using mouse myoblastic C2C12 cells. The assay involves transfecting C2C12 cells with a plasmid containing full-length AR along with an AR response element linked to luciferase (2XIDR17). The luminescence read-out at the end of the assay is measured using Victor 3 and is a direct measure of the transcriptional activity. The assay has been validated using the reference compound, BMS-564929, for which EC50 values have been reported in a similar set-up.
C2C12 cells were obtained from ATCC (Cat #CRL-1772) and maintained in DMEM modified to contain 4 mM L-glutamine, 4.5 g/L glucose, 1 mM sodium pyruvate and 1.5 g/L sodium bicarbonate and 10% FBS.
AR-FL in pcDNA 3.1(+) and 2XIDR17 in pGL4.26 plasmids prepared using Genelute plasmid miniprep kit from Sigma Cat #PLED35 Steadyglow Luciferase assay system Promega Cat #E2550
• C2C12 cells were seeded in a 96-well plate in DMEM (Dulbecco's Modified Eagle Medium) without phenol red and containing 10% CS-FBS (Charcoal-stripped Fetal Bovine Serum) at 8000 cells/well. • The next day, cells were transfected with an equimolar ratio of (Androgen Receptor-Full length) AR-FL and 2XIDR17-Luciferase at a total plasmid concentration of 200 ng/well using Lipofectamine 2000 following manufacturer's protocol. • For the transfection, 83 ng of AR-FL and 117 ng of 2XIDR17-Luciferase were in 12.5 μl of OptiMEM—Mix A. 0.4 μl of Lipofectamine 2000 was added to 12.5 μl of OptiMEM and incubated for 5 min at room temperature—Mix B. The two mixes A and B were mixed and incubated at room temperature for an additional fifteen minutes. An additional 50 μl of OptiMEM was added, gently mixed and this mixture was added to the cells in the 96-well plate. The above quantities are requirements per well of a 96-well plate. Master mixes were made for the entire plate, with proportional quantity of reagents being used. • 5 h after transfection, compounds were added to the wells in DMEM without phenol red and containing 10% CS-FBS, maintaining a final DMSO concentration of 0.5%. A typical dose response curve starts at 10 μM and includes a 7-point, log dilution, done in triplicates. • After overnight incubation with the compounds, 100 ul of working solution of Steadyglow reagent was added to the wells. • The plates were placed in a shaker for 15 min at the end of which the lysate containing luciferase was transferred to a white flat-bottom plate and read under a luminescence setting in Victor. • Background subtracted counts (Luminescence from DMSO control wells is considered the background) are used to calculate percentage activity, expressed relative to activity with 1 μM (Dihydrotestosterone) DHT (at least two sets of triplicates for 1 μM DHT are included per plate).
The EC50 curves for the compounds for 8 compound concentrations were fitted by the respective function using non-linear least-squares regression in Graphpad Prism 4.0 (Graphpad Software, San Diego, Calif., USA).

[1] abbreviates: mouse myoblastic C2C12 cells transfected with full-length AR and 2XIDR17-luciferase, read-out: Biological activity (C2C12 cell) EC50.
The mark [2] stands for this setting: C2C12 cells, read-out: EC50 value in test 1.

Read-outs that look alike come from different tables or passages of the source. Where only a bound is given, the exact number is not on record here.

The compound `Cc1cc(CN2C(=O)N(c3ccc(C#N)c(Cl)c3C)C(=O)C23CCCC3)no1` [Example 8.1, 2-chloro-3-methyl-4-(1-((5-methylisoxazol-3-yl)methyl)-2,4-dioxo-1,3-diazaspiro[4.4]nonan-3-yl)benzonitrile] yielded a melting point of 134 °C. Besides, at androgen receptor (AR), the Emax was 109%. Further, the EC50 at androgen receptor (AR) (setting [1]) came to 6 nM.

`Cc1c(N2C(=O)N(C)C3(CCC3)C2=O)ccc(C#N)c1Cl` [Example 12.0, 2-chloro-3-methyl-4-(5-methyl-6,8-dioxo-5,7-diazaspiro[3.4]octan-7-yl)benzonitrile] had a melting point of 133 °C. On androgen receptor (AR) (C2C12 cells), the “% Biological activity (C2C12 cell) 100 nM” value is 67% and the “% Biological activity (C2C12 cell) 5 μM” value is given as 70%.

`Cc1c(N2C(=O)N(Cc3ccc(C#N)cc3)C3(CCCC3)C2=O)ccc(C#N)c1Cl` [Example 8.0, 2-chloro-4-(1-(4-cyanobenzyl)-2,4-dioxo-1,3-diazaspiro[4.4]nonan-3-yl)-3-methylbenzonitrile] yielded a melting point of 195 °C. At androgen receptor (AR), the Emax was 106%. Besides, the EC50 at androgen receptor (AR) (setting [1]) is 0.48 nM.

Regarding `Cc1c(N2C(=N)C3(CCCC3)N(C)C2=O)ccc(C#N)c1Cl` [Example 7.0, 2-chloro-4-(4-imino-1-methyl-2-oxo-1,3-diazaspiro[4.4]nonan-3-yl)-3-methylbenzonitrile], the melting point was determined as 199 °C. Besides, the maximum response (Emax) on androgen receptor (AR) was 53%. In addition, at androgen receptor (AR) (setting [1]), the EC50 is 103 nM.

Turning to `Cc1c(N2C(=O)N(C)C3(CCCC3O)C2=O)ccc(C#N)c1Cl` (stereo not shown), the melting point worked out at 188 °C.

Compound `Cc1c(N2C(=O)N(CCOCCF)C3(CCCC3)C2=O)ccc(C#N)c1Cl` [Example 9.2, 2-chloro-4-(1-(2-(2-fluoroethoxy)ethyl)-2,4-dioxo-1,3-diazaspiro[4.4]nonan-3-yl)-3-methylbenzonitrile] came in with a melting point of 112 °C. Also, the maximal effect (Emax) on androgen receptor (AR) is 83%. Besides, the EC50 at androgen receptor (AR) (setting [1]) is 17.8 ± 6.6 nM.

`Cc1c(N2C(=O)N(C)C3(CCCC3O)C2O)ccc(C#N)c1Cl` (mixture of isomers) [Example 1.2, 2-chloro-4-(4,6-dihydroxy-1-methyl-2-oxo-1,3-diazaspiro[4.4]nonan-3-yl)-3-methylbenzonitrile] showed a melting point of 179 °C. Also, the Emax at androgen receptor (AR) is 79%. The EC50 on androgen receptor (AR) (setting [1]) was determined as 930 nM.

Take `Cc1c(N2C(=O)N(C)C3(CCCC3=O)C2=O)ccc(C#N)c1Cl` (racemic) [Example 1.1, 2-chloro-3-methyl-4-(1-methyl-2,4,6-trioxo-1,3-diazaspiro[4.4]nonan-3-yl)benzonitrile]: the melting point is 161 °C. For the same compound, at androgen receptor (AR), the Emax is 60%. The concentration giving a half-maximal response (EC50) on androgen receptor (AR) (setting [1]) was determined as 847 nM.

Turning to `Cc1ccc(CN2C(=O)N(c3ccc(C#N)c(Cl)c3C)C(=O)C23CCCC3)cn1` [Example 8.6, 2-chloro-3-methyl-4-(1-((6-methylpyridin-3-yl)methyl)-2,4-dioxo-1,3-diazaspiro[4.4]nonan-3-yl)benzonitrile], the melting point was found to be 177 °C. Further, the EC50 on androgen receptor (AR) (setting [1]) is 11 nM.

As for `Cc1c(N2C(=O)N(Cc3ccccn3)C3(CCCC3)C2=O)ccc(C#N)c1Cl` [Example 8.4, 2-chloro-4-(2,4-dioxo-1-(pyridin-2-ylmethyl)-1,3-diazaspiro[4.4]nonan-3-yl)-3-methylbenzonitrile], the melting point worked out at 179 °C. Further, at androgen receptor (AR), the Emax is 96%. For the same compound, at androgen receptor (AR) (setting [1]), the EC50 is 48 nM.

In the case of `CCN1C(=O)N(c2ccc(C#N)c(Cl)c2C)C(=O)C12CCCC2O` (stereo not shown) [1.3], the Emax at androgen receptor (AR) is 79%.

In the case of `Cc1c(N2CC3(CCCC3O)OC2=O)ccc(C#N)c1Cl` (stereo not shown) [2-chloro-4-(6-hydroxy-2-oxo-1-oxa-3-azaspiro[4.4]nonan-3-yl)-3-methylbenzonitrile], the EC50 at androgen receptor (AR) (setting [2]) is above 30000 nM.

On to `Cc1c(N2C(=O)N(C)C3(CCC(O)C3)C2=O)ccc(C#N)c1Cl` (stereo not shown) [Example 6.0, 2-chloro-4-(7-hydroxy-1-methyl-2,4-dioxo-1,3-diazaspiro[4.4]nonan-3-yl)-3-methylbenzonitrile], for which the Emax at androgen receptor (AR) is 70%. Besides, the EC50 on androgen receptor (AR) (setting [1]) was 53 nM.

For `Cc1c(N2C(=O)N(CCN3CCOCC3)C3(CCCC3)C2=O)ccc(C#N)c1Cl` [2-chloro-3-methyl-4-(1-(2-morpholinoethyl)-2,4-dioxo-1,3-diazaspiro[4.4]nonan-3-yl)benzonitrile], on androgen receptor (AR) (setting [2]), the 50% effective concentration (EC50) is above 30000 nM.

For `Cc1c(N2C(=O)N(CCCF)C3(CCCC3)C2=O)ccc(C#N)c1Cl` [Example 9.9, 2-chloro-4-(1-(3-fluoropropyl)-2,4-dioxo-1,3-diazaspiro[4.4]nonan-3-yl)-3-methylbenzonitrile], on androgen receptor (AR) (C2C12 cells), the “% Biological activity (C2C12 cell) 100 nM” value is 27% and the “% Biological activity (C2C12 cell) 5 μM” value turned out to be 52%.

As for `Cc1c(N2C(=O)N(CCC3CCOCC3)C3(CCCC3)C2=O)ccc(C#N)c1Cl` [2-chloro-4-(2,4-dioxo-1-(2-(tetrahydro-2H-pyran-4-yl)ethyl)-1,3-diazaspiro[4.4]nonan-3-yl)-3-methylbenzonitrile], at androgen receptor (AR) (setting [2]), the EC50 was above 30000 nM.

Turning to `Cc1c(N2CC3(CCCC3O)N(C)C2=O)ccc(C#N)c1Cl` (stereo not shown) [2.0], the Emax at androgen receptor (AR) was 76%. Further, the EC50 at androgen receptor (AR) (setting [1]) stood at 2910 nM.

As for `Cc1c(N2C(=O)N(C)[C@]3(CCC[C@@H]3F)C2=O)ccc(C#N)c1Cl` [1.4(iv), 2-chloro-4-((5R,6S)-6-fluoro-1-methyl-2,4-dioxo-1,3-diazaspiro[4.4]nonan-3-yl)-3-methylbenzonitrile], the EC50 on androgen receptor (AR) (setting [1]) amounted to 0.79 nM.

In the case of `Cc1c(N2C(=O)N(C)C3(CCC(F)C3)C2=O)ccc(C#N)c1Cl` (single isomer, unassigned), the melting point amounted to 162 °C.

Take `Cc1c(N2CC3(CCCC3F)OC2=O)ccc(C#N)c1Cl` (stereo not shown) [2-chloro-4-(6-fluoro-2-oxo-1-oxa-3-azaspiro[4.4]nonan-3-yl)-3-methylbenzonitrile]: on androgen receptor (AR) (setting [2]), the EC50 is above 30000 nM.

Regarding `Cc1c(N2C(=O)N(CCCCCC#N)C3(CCCC3)C2=O)ccc(C#N)c1Cl` [Example 9.1, 2-chloro-4-(1-(5-cyanopentyl)-2,4-dioxo-1,3-diazaspiro[4.4]nonan-3-yl)-3-methylbenzonitrile], on androgen receptor (AR), the Emax is 108%. For the same compound, the concentration for a half-maximal effect (EC50) on androgen receptor (AR) (setting [1]) was found to be 8.7 ± 2.1 nM.

As for `Cc1c(N2C(=O)OC3(CCCC3O)C2=O)ccc(C#N)c1Cl` (stereo not shown), the melting point is 150 °C.

One may read the melting point as the temperature of the solid-liquid transition. What is called Emax is the maximal effect, on the per cent scale that the assay sets. For orientation: EC50 means the midpoint of the concentration-response curve.
